US8846704B2, “Thiopyrimidine-based compounds and uses thereof” (YM Biosciences Austraila Pty Ltd, priority 2007, dated 2014)

Experiments:
Assay type in all cases: cell-based
[1] = molecular target: T1, BaF3 TELJAK2 cells (BafT_J2) (Homo sapiens, UniProt O60674); experiment: Cellular screening, BaF3 TEL:JAK2 cells, Alamar Blue; conditions: 40 hr, read-out: BafT_J2 IC50_nM
T1 construct: fused on or other part: TEL (ETV6) N-terminal part, coding nucleotides 1-487, serves as the oligomerising partner; It is fused through a Sal I site to the JAK2 kinase domain and expressed from pTRE2 in BaF3 cells bearing pTET-off; P41212 (Transcription factor ETV6)
Method in brief: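 Tet-off BaF3 cells carrying a TEL (nt 1-487)–JAK2 kinase-domain fusion, grown factor-independently in DMEM with 10% Tet-approved FBS without WEHI 3B medium. Compounds were diluted to 20 μM in screening plates, and cells (50,000–200,000 cell/mL at 1.1×) were incubated 40 hr at 37 °C, 5% CO2. Alamar Blue was then added for 4-6 hours; read at 544 nm.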

[2] = molecular target: T2, BaF3 TELJAK3 cells (Homo sapiens, UniProt P52333); experiment: Cellular screening, BaF3 TEL:JAK3 cells, Alamar Blue; conditions: 40 hr, read-out: BafT_J3 IC50_nM
T2 construct: fused on or other part: TEL (ETV6) N-terminal part, coding nucleotides 1-487, serves as the oligomerising partner; It is fused through a Sal I site to the JAK3 kinase domain and expressed from pTRE2 in BaF3 cells bearing pTET-off; P41212 (Transcription factor ETV6)
T2 sequence (P52333 1-1124): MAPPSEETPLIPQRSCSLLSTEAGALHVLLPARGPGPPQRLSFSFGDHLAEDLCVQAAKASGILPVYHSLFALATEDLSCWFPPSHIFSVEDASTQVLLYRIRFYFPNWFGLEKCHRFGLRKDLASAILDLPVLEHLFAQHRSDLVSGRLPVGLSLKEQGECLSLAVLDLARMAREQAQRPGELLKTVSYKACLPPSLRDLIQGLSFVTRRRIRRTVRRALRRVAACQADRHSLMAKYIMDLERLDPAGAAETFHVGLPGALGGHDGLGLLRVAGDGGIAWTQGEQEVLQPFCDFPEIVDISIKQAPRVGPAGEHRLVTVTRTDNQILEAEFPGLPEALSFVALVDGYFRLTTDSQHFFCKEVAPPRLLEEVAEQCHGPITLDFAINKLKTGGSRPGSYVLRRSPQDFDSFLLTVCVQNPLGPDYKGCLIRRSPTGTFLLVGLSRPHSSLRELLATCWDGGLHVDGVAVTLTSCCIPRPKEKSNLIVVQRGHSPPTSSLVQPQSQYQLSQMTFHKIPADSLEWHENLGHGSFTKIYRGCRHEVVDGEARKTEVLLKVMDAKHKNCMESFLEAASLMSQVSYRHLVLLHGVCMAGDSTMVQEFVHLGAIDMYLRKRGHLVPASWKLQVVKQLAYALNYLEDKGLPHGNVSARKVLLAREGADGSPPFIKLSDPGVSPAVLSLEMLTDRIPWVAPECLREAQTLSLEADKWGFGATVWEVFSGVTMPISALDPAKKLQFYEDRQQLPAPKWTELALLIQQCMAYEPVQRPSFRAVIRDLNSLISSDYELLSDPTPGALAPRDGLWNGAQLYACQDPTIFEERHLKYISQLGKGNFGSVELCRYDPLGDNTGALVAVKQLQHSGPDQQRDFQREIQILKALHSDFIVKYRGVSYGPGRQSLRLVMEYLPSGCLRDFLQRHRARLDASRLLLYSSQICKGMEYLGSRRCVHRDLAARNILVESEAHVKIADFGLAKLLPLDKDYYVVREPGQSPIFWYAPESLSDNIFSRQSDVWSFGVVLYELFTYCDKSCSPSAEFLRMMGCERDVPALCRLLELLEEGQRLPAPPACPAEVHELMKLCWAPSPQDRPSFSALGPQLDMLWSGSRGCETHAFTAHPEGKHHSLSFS
Method in brief: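 BaF3 cells carrying pTET-off and a TEL–JAK3 kinase-domain fusion, selected for growth-factor independence, were grown in DMEM with 10% Tet-approved FBS without WEHI 3B medium. Cells were exposed to compounds for 40 h at 37 °C, 5% CO2. Viability was read with Alamar Blue (4–6 h) at 544 nm.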

[3] = tested on: CTLL2; experiment: Cellular screening, CTLL2 cells, Alamar Blue; conditions: Mus musculus, CTLL-2, read-out: CTLL2 IC50_nM
Method in brief: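 CTLL2 cells in late log phase incubated with compound for 40 hr at 37° C, 5% CO2. Viability then read at 544 nm after a further 4-6 hours with Alamar Blue.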

T1 sequence (O60674 whole entry, change not shown, the tested form may be a part): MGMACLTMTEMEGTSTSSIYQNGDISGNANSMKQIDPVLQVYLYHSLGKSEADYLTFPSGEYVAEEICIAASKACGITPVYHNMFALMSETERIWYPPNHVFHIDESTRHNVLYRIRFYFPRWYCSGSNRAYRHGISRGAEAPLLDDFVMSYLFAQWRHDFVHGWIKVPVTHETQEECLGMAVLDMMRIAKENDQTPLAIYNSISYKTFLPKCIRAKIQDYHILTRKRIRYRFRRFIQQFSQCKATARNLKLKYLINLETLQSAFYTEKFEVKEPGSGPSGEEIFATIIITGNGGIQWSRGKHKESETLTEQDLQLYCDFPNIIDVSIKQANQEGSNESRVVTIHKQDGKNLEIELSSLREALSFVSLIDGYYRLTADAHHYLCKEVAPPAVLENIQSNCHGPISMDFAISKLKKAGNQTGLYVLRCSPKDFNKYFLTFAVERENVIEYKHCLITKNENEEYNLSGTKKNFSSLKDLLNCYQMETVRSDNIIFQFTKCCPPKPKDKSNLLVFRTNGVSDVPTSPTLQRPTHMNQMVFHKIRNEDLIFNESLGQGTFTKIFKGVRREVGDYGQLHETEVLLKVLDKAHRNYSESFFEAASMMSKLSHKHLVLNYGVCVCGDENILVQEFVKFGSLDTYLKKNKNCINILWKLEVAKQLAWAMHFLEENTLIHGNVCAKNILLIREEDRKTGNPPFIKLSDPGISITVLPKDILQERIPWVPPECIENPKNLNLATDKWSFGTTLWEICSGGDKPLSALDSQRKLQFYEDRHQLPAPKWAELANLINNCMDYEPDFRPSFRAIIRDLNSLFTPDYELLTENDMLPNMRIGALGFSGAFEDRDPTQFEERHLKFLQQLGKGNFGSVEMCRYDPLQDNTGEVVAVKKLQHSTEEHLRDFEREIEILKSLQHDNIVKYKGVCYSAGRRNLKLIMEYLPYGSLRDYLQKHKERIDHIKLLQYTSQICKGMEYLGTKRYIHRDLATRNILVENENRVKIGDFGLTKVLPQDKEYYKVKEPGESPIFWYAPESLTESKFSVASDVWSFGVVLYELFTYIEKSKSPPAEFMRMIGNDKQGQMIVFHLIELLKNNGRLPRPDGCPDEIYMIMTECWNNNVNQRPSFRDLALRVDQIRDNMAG

Row | Compound | GI50 [1] [µM] | GI50 [2] [µM] | IC50 [3] [µM]
1 | Nc1ccc(Sc2nc(Nc3ccc(N4CCOCC4)cc3)ncc2Cl)cc1 [Compound 318, 4-(4-aophenylthio)-5-chloro-N-(4-morpholinophenyl)pyrimidin-2-ae] | > 20 | > 20 | < 20
2 | C=CC(=O)Nc1ccc(Sc2ccnc(Nc3cccc(N4CCCC4)c3)n2)cc1 [Compound 355, N-(4-(2-(3-(pyrrolidin-1-yl)phenylao)pyrimidin-4-ylthio)phenyl)acrylamide] | < 20 | < 5 | < 5
3 | Cc1cnc(Nc2ccc(N3CCOCC3)cc2)nc1Sc1ccc(NC(=O)COCC(=O)O)cc1 [Compound 188, 2-(2-(4-(5-methyl-2-(4-morpholinophenylao)pyrimidin-4-ylthio)phenylao)-2-oxoethoxy)acetic acid] | > 20 | > 20 | > 20
4 | Cc1cnc(Nc2ccc(N3CCOCC3)cc2)nc1Sc1ccc(C#N)cc1 [Compound 136, 4-(5-methyl-2-(4-morpholinophenylao)pyrimidin-4-ylthio)benzonitrile] | > 20 | > 20 | > 20
5 | C=CC(=O)Nc1ccc(Sc2ccnc(Nc3cccc(C(=O)OC)c3)n2)cc1 [Compound 356, methyl 3-(4-(4-acrylamidophenylthio)pyrimidin-2-ylao)benzoate] | < 20 | < 5 | < 5
6 | C=CC(=O)Nc1ccc(Sc2ccnc(Nc3ccc(C#N)cc3)n2)cc1 [Compound 131, N-(4-(2-(4-cyanophenylao)pyrimidin-4-ylthio)phenyl)acrylamide] | < 20 | < 5 | < 20
7 | C=CC(=O)Nc1ccc(Sc2ccnc(Nc3ccc(S(=O)(=O)N4CCOCC4)cc3)n2)cc1 [Compound 367, N-(4-(2-(4-(morpholinosulfonyl)phenylao)pyrimidin-4-ylthio)phenyl)acrylamide] | < 20 | < 5 | < 20
8 | COc1ccc(Nc2nccc(Sc3ccc(NC(=O)CC#N)cc3)n2)cc1OC [Compound 101, 2-cyano-N-(4-(2-(3,4-dimethoxyphenylao)pyrimidin-4-ylthio)phenyl)acetamide] | < 5 | < 1 | < 20
9 | C=CC(=O)Nc1ccc(Sc2ccnc(Nc3cccc(S(=O)(=O)NCc4ccccc4)c3)n2)cc1 [Compound 366, N-(4-(2-(3-(N-benzylsulfamoyl)phenylao)pyrimidin-4-ylthio)phenyl)acrylamide] | < 20 | < 5 | < 5
10 | CC#CC(=O)Nc1ccc(Sc2ccnc(Nc3ccc(N4CCOCC4)cc3)n2)cc1 [Compound 104, N-(4-(2-(4-morpholinophenylao)pyrimidin-4-ylthio)phenyl)but-2-ynamide] | > 20 | < 5 | < 5
11 | Cc1cnc(Nc2ccc(N3CCOCC3)cc2)nc1Sc1ccc2c(c1)CCCN2 [Compound 166, 5-methyl-N-(4-morpholinophenyl)-4-(1,2,3,4-tetrahydroquinolin-6-ylthio)pyrimidin-2-ae] | < 5 | < 20 | < 20
12 | CC(=O)Nc1ccc(Sc2ccnc(Nc3ccc(N4CCC(N5CCCC5)CC4)cc3)n2)cc1 [Compound 86, N-(4-(2-(4-(4-(pyrrolidin-1-yl)piperidin-1-yl)phenylao)pyrimidin-4-ylthio)phenyl)acetamide] | < 20 | < 5 | < 5
13 | Cc1cnc(Nc2ccc(N3CCOCC3)cc2)nc1Sc1ccc(NC(=O)/C(Br)=C\C(=O)O)cc1 [Compound 381, (E)-3-bromo-4-(4-(5-methyl-2-(4-morpholinophenylao)pyrimidin-4-ylthio)phenylao)-4-oxobut-2-enoic acid] | > 20 | < 20 | < 20
14 | C=CC(=O)Nc1ccc(Sc2nc(Nc3ccc4c(c3)OCO4)ncc2C)cc1 [Compound 284, N-(4-(2-(benzo[d][1,3]dioxol-5-ylao)-5-methylpyrimidin-4-ylthio)phenyl)acrylamide] | < 20 | < 1 | < 1
15 | C=CC(=O)Nc1ccc(Sc2nc(Nc3ccc(N4CCS(=O)(=O)CC4)cc3)ncc2C)cc1 [Compound 298, N-{4-[(2-{[4-(1,1-dioxo-1λ^6,4-thiomorpholin-4-yl)phenyl]ao}-5-methylpyrimidin-4-yl)sulfanyl]phenyl}prop-2-enamide] | < 20 | < 1 | < 1
16 | C=CC(=O)Nc1ccc(Sc2ccnc(Nc3ccc(OC)cc3)n2)cc1 [Compound 74, N-(4-(2-(4-methoxyphenylao)pyrimidin-4-ylthio)phenyl)acrylamide] | > 20 | < 1 | < 5
17 | c1cn(Cc2ccc(Sc3ccnc(Nc4ccc(N5CCOCC5)cc4)n3)cc2)cn1 [Compound 127, 4-(4-((1H-imidazol-1-yl)methyl)phenylthio)-N-(4-morpholinophenyl)pyrimidin-2-ae] | < 20 | < 20 | < 20
18 | O=C(/C=C/Cl)Nc1ccc(Sc2ccnc(Nc3ccc(N4CCOCC4)cc3)n2)cc1 [Compound 342, (E)-3-chloro-N-(4-(2-(4-morpholinophenylao)pyrimidin-4-ylthio)phenyl)acrylamide] | > 20 | < 5 | < 20
19 | COc1cc(Sc2ccnc(Nc3ccc(N4CCOCC4)cc3)n2)ccc1N [Compound 117, 4-(4-ao-3-methoxyphenylthio)-N-(4-morpholinophenyl)pyrimidin-2-ae] | < 20 | > 20 | < 20
20 | Cc1cnc(Nc2ccc(N3CCOCC3)cc2)nc1Sc1ccc(N2C(=O)C=CC2=O)cc1 [Compound 390, 1-(4-(5-methyl-2-(4-morpholinophenylao)pyrimidin-4-ylthio)phenyl)-1H-pyrrole-2,5-dione] | < 5 | < 5 | < 5
21 | NC(=O)c1nccn1Cc1ccc(Sc2ccnc(Nc3ccc(N4CCOCC4)cc3)n2)cc1 [Compound 149, 1-(4-(2-(4-morpholinophenylao)pyrimidin-4-ylthio)benzyl)-1H-imidazole-2-carboxamide] | < 5 | < 5 | < 20
22 | CCOC(=O)/C=C\C(=O)Nc1ccc(Sc2nc(Nc3ccc(N4CCOCC4)cc3)ncc2C)cc1 [Compound 388, (Z)-ethyl 4-(4-(5-methyl-2-(4-morpholinophenylao)pyrimidin-4-ylthio)phenylao)-4-oxobut-2-enoate] | < 5 | < 5 | < 5
23 | O=C(CCl)Nc1cccc(Sc2ccnc(Nc3ccc(N4CCOCC4)cc3)n2)c1 [Compound 332, 2-chloro-N-(3-(2-(4-morpholinophenylao)pyrimidin-4-ylthio)phenyl)acetamide] | < 5 | < 1 | < 5
24 | C=CC(=O)Nc1ccc(Sc2ccnc(Nc3cccc(OC)c3)n2)cc1 [Compound 105, N-(4-(2-(3-methoxyphenylao)pyrimidin-4-ylthio)phenyl)acrylamide] | < 20 | < 1 | < 20
